Data from ChEMBL document CHEMBL4414593, “Prenylated Acetophloroglucinol Dimers from Acronychia trifoliolata: Structure Elucidation and Total Synthesis” (J Nat Prod, 2019).

Experiments:
KB = assay: Antiproliferative activity against human KB cells assessed as reduction in cell viability after 72 hrs by SRB assay; assay type: functional, cell-based
A549 = assay: Antiproliferative activity against human A549 cells assessed as reduction in cell viability after 72 hrs by SRB assay; assay type: functional, cell-based; settings: A549, 72 h
[1] = Antiproliferative activity against P-gp overexpressing human KBVIN cells assessed as reduction in cell viability after 72 hrs by SRB assay; assay type: functional
MDA-MB-231 = assay: Antiproliferative activity against triple-negative human MDA-MB-231 cells assessed as reduction in cell viability after 72 hrs by SRB assay; assay type: functional, cell-based; settings: MDA-MB-231, 72 h

IC50 (KB)	IC50 (A549)	IC50 (MDA-MB-231)	Compound	IC50 [1]
0.0074 µM	0.0063 µM	0.0107 µM	CC(=O)O[C@H]1C(=O)[C@@]2(C)[C@H]([C@H](OC(=O)c3ccccc3)[C@]3(O)C[C@H](OC(=O)[C@H](O)[C@@H](NC(=O)c4ccccc4)c4ccccc4)C(C)=C1C3(C)C)[C@]1(OC(C)=O)CO[C@@H]1C[C@@H]2O [PACLITAXEL]	4.53 µM
5.2 µM	4.9 µM	5.8 µM	COc1c(CC=C(C)C)c(O)c(C(CC(C)C)c2c(O)cc(O)c(C(C)=O)c2O)c(O)c1C(C)=O (stereo not drawn)	5 µM
6 µM	> 10 µM	10 µM	C=C(C)C(O)Cc1c(O)c(C(C)=O)c(O)c(C(CC(C)C)c2c(O)c(CC=C(C)C)c(OC)c(C(C)=O)c2O)c1O (racemic) [ACROVESTENOL]	6.5 µM
> 10 µM	> 10 µM	> 10 µM	COc1c(CC=C(C)C)c(O)c(C(CC(C)C)c2c(O)c3c(c(C(C)=O)c2O)OC(C)(C)C(O)C3)c(O)c1C(C)=O (racemic)	> 10 µM
> 10 µM	> 10 µM	> 10 µM	COc1c(CC=C(C)C)c(O)c(C(CC(C)C)c2c(O)c(C(C)=O)c(O)c3c2OC(C)(C)C(O)C3)c(O)c1C(C)=O (racemic)	> 10 µM
4.9 µM	5.9 µM	5.4 µM	COc1c(CC=C(C)C)c(O)c(C(CC(C)C)c2c(O)c3c(c(C(C)=O)c2O)OC(C)(C)C=C3)c(O)c1C(C)=O (racemic)	4.3 µM
> 10 µM	> 10 µM	> 10 µM	COc1c(CC=C(C)C)c(O)c(C(CC(C)C)c2c(O)c3c(c(C(C)=O)c2O)OC(C(C)(C)O)C3)c(O)c1C(C)=O (racemic)	> 10 µM
5.2 µM	5.6 µM	6.9 µM	COc1c(CC=C(C)C)c(O)c(Cc2c(O)cc(O)c(C(C)=O)c2O)c(O)c1C(C)=O	5.1 µM
> 10 µM	> 10 µM	> 10 µM	COc1c(CC=C(C)C)c(O)c(C(CC(C)C)c2c(O)c(C=O)c(O)c(C(C)=O)c2O)c(O)c1C(C)=O (racemic)	> 10 µM
7.6 µM	> 10 µM	> 10 µM	COc1c(CC=C(C)C)c(O)c(C(CC(C)C)c2c(O)c(CC=C(C)C)c(OC)c(C(C)=O)c2O)c(O)c1C(C)=O	8.4 µM
4.9 µM	6.1 µM	6.4 µM	COc1c(CC=C(C)C)c(O)c(C(CC(C)C)c2c(O)c(CC=C(C)C)c(O)c(C(C)=O)c2O)c(O)c1C(C)=O (racemic)	4.4 µM
5.5 µM	6.4 µM	5.9 µM	COc1c(CC=C(C)C)c(O)c(Cc2c(O)c(CC=C(C)C)c(OC)c(C(C)=O)c2O)c(O)c1C(C)=O	5.5 µM
